Consider five compounds from patent publication US20260159510A1, “HETEROCYCLIC COMPOUND, PREPARATION METHOD THEREFOR AND USE THEREOF” (GUANGZHOU DAGUANG PHARMACEUTICAL CO., LTD., priority 2022, published 2026).

Marks after values point to notes of the source that are not given here.

What all share (assay type): in vivo, SD rats
The subject of assay [1] is rat models with focal cerebral ischemia-reperfusion (tMCAO). Kind of assay: Rotarod test (latent period of falling) in tMCAO model rats. The conditions noted are these: Gavage, 3 × 10^−5 mol/kg, 3 administrations, about 24 h after last administration, x ± s. The procedure: (§1) Rat models with focal cerebral ischemia-reperfusion (tMCAO) were prepared by using a suture-occluded method, and therapeutic effects of the test drugs on the tMCAO model rats were investigated.
(§2) A specific modeling method for the rat models with focal cerebral ischemia-reperfusion (tMCAO) is as follows. At 12 h before surgery, the rats were fed at about 30 g/piece. After induced anesthesia with 3-4% isoflurane and maintained anesthesia with 1.5-2.5% isoflurane were performed, the rats were placed at supine positions on an operating table at a constant temperature of 37° C. The skin in middle lines of necks was cut, subcutaneous tissues and muscles were bluntly separated, and common carotid arteries on right sides, internal carotid arteries and external carotid arteries were separated. Two ligation threads were allowed to penetrate through the external carotid arteries to ligate distal ends, an artery clamp was placed at the common carotid arteries and the internal carotid arteries, respectively, small incisions were made at 45° diagonally on the external carotid arteries at about 4 mm away from bifurcations of the common carotid arteries, and suitable suture occlusions were inserted to gently ligate proximal ends. The external carotid arteries were cut, directions and angles of the suture occlusions were adjusted, the suture occlusions were gently pushed and inserted into the internal carotid arteries, and then the artery clamps were released. The suture occlusions were continuously inserted until black dot marks of the suture occlusions reached junctions of the internal carotid arteries and the common carotid arteries at a length of about 18-20 mm. The proximal ends of the external carotid arteries were tightened, the suture occlusions were fixed, the skin was sutured after it was confirmed that there was no bleeding, the body temperature of the rats was maintained, and meloxicam as an analgesic drug was injected subcutaneously at 1 mg/kg.
(§3) At 2 h after ischemia, induced anesthesia with 3-4% isoflurane and maintained anesthesia with 1.5-2.5% isoflurane were performed, the skin sutures were cut, the ligation threads at the proximal ends of the external carotid arteries were opened, the suture occlusions were taken out, reperfusion was performed, ligation was performed again, and the skin was sutured after it was confirmed that there was no bleeding. In a sham-operated control group, other steps were the same as above except that the suture occlusions were inserted and pulled out immediately and the reperfusion was not required. After the surgery, the rats were allowed to lie prostrate and return to a cage.
(§4) When the animals were awake after modeling, behavioral scoring was performed on the animals with reference to a 4-point scoring standard of Zea longa. The animals with scores of 1-3 points were judged as successfully modeled animals, and the animals not meeting requirements were eliminated.
(§5) Method: SPF-grade male SD rats were used, the various tMCAO rat models were prepared by using the suture-occluded method, and the successfully modeled animals were randomly divided into 6 groups including a model control group, a test drug group 1, a test drug group 2, a test drug group 3, a test drug group 4 and a test drug group 5, with 6 or more animals in each group. In addition, the sham-operated control group was set, which involved 6 animals with the suture occlusions inserted and pulled out immediately in the surgery. […]
Background: The rotarod test checks motor coordination on a turning rod.

The test system is the same in assay [2]. Kind of assay: Behavioral scoring of tMCAO model rats. The conditions noted are these: about 24 h after last administration, x ± s. On the procedure:
as §1, §2, §3, §4, §5

Assay [3] shares this test system. In words: Cerebral blood flow in tMCAO model rats. The conditions noted are these: x ± s; for Cerebral blood flow 24 h after last administration / Cerebral blood flow improvement percentage / Recovery percentage of cerebral blood flow 24 h after last administration: 24 h after last of 3 administrations, 3×10^−5 mol/kg; for Cerebral blood flow before administration / Decrease percentage of cerebral blood flow before administration: after ischemia, before first administration; for Cerebral blood flow before ischemia: baseline before surgery, before any administration. The procedure: as §1, §2, §3, §4
as §5, with “surgery. At 4 h after the cerebral ischemia (at 4 h after the suture occlusions were pulled out in the sham-operated group), the various groups were given the various drugs or a vehicle for the first time. In each group, an administration dose was 3×10^−5 mol/kg, an administration volume was 3 mL/kg, administration was performed for a total of 3 times, and an administration time interval of every two times was 24 h.” for “surgery.”

The test system is the same in assay [4]. Kind of assay: Percentage of cerebral infarction area (TTC staining) in tMCAO model rats. To be noted: Gavage, about 24 h after last administration, x ± s. On the procedure:
as §1, §2, §3, §4, §5

Assay [5] shares this test system. In words: Drug efficacy test in tMCAO model rats, overall result. To be noted: latent period of falling, behavioral scores, infarction area, cerebral blood flow. The procedure: as §1
A specific modeling method for the rat models with focal cerebral ischemia-reperfusion (tMCAO) is as follows. At 12 h before surgery, the rats were fed at about 30 g/piece. After induced anesthesia with 3-4% isoflurane and maintained anesthesia with 1.5-2.5% isoflurane were performed, the rats were placed at supine positions on an operating table at a constant temperature of 37° C. The skin in middle lines of necks was cut, subcutaneous tissues and muscles were bluntly separated, and common carotid arteries on right sides, internal carotid arteries and external carotid arteries were separated. Two ligation threads were allowed to penetrate through the external carotid arteries to ligate distal ends, an artery clamp was placed at the common carotid arteries and the internal carotid arteries, respectively, small incisions were made at 45° diagonally on the external carotid arteries at about 4 mm away from bifurcations of the common carotid arteries, and suitable suture occlusions were inserted to gently ligate proximal ends. […]

As for `Cc1cc(OC(=O)c2cccnc2)n(-c2nc(C)c(C)nc2C)n1` [Test drug 1, 3-methyl-1-(3,5,6-trimethylpyrazin-2-yl)-1H-pyrazol-5-nicotinate], in assay [1], the “Latent period of falling (rotarod test)” value is listed as 48.7 ± 14.0 s. Besides, the Behavioral score in assay [2] (route printed as Intravenous injection and Gavage, 3 × 10^−5 mol/kg) was 1.9 ± 0.6. In assay [3], the “Cerebral blood flow 24 h after last administration” value is reported as 304.8 ± 12.7 BPU, the “Cerebral blood flow improvement percentage” value is reported as 28.7 ± 4.9 %, the “Recovery percentage of cerebral blood flow 24 h after last administration” value (from here on “Recovery percentage”) amounted to 87.8 ± 2.0 % and the “Cerebral blood flow before administration” value was 204.6 ± 10.3 BPU. Also, in assay [3], the “Decrease percentage of cerebral blood flow before administration” value (from here on “Decrease percentage”) is 40.9 ± 5.2% and the “Cerebral blood flow before ischemia” value came to 347.5 ± 19.3 BPU. In assay [4] (3 × 10^−5 mol/kg), the “Percentage of cerebral infarction area” value amounted to 4.6 ± 1.2 %.

As to `CC(=O)Oc1cc(C)nn1-c1nc(C)c(C)nc1C` [Test drug 2, 3-methyl-1-(3,5,6-trimethylpyrazin-2-yl)-1H-pyrazol-5-acetate], the “Latent period of falling (rotarod test)” value in assay [1] was determined as 35.2 ± 23.3 s. For the same compound, the Behavioral score in assay [2] (Gavage, 3 × 10^−5 mol/kg) was determined as 2.3 ± 0.7. In addition, in assay [3], the “Cerebral blood flow 24 h after last administration” value is listed as 367.8 ± 36.9 BPU, the “Cerebral blood flow improvement percentage” value is recorded as 20.9 ± 13.8 %, the “Recovery percentage” value was 79.3 ± 8.9 % and the “Cerebral blood flow before administration” value came out at 213.3 ± 16.6 BPU. In assay [3], the “Decrease percentage” value amounted to 41.6 ± 8.6% and the “Cerebral blood flow before ischemia” value is recorded as 371.8 ± 51.6 BPU. In assay [4] (3 × 10^−5 mol/kg), the “Percentage of cerebral infarction area” value turned out to be 5.8 ± 2.2 %.

On to `CC(=O)Oc1ccccc1C(=O)Oc1cc(C)nn1-c1nc(C)c(C)nc1C` [Test drug 3, 3-methyl-1-(3,5,6-trimethylpyrazin-2-yl)-1H-pyrazol-5-yl-2-acetoxybenzoate], for which, in assay [1], the “Latent period of falling (rotarod test)” value is given as 49.7 ± 12.3 s. In assay [2] (Gavage, 6 × 10^−5 mol/kg), this compound gave a Behavioral score of 1.6 ± 0.7. In addition, in assay [3], the “Cerebral blood flow 24 h after last administration” value is reported as 321.4 ± 54.0 BPU, the “Cerebral blood flow improvement percentage” value was 30.3 ± 7.1 %, the “Recovery percentage” value is listed as 90.1 ± 4.2**^&& % and the “Cerebral blood flow before administration” value came out at 210.3 ± 15.1 BPU. In assay [3], the “Decrease percentage” value amounted to 40.1 ± 6.3% and the “Cerebral blood flow before ischemia” value stood at 356.5 ± 56.6 BPU. The “Percentage of cerebral infarction area” value in assay [4] (6 × 10^−5 mol/kg) is 3.5 ± 1.6**^& %. The “Overall therapeutic effect in tMCAO rats (in words; vs model control group and between test drug groups)” value in assay [5] is “better than the groups 2 and 5”.

As for `Cc1cc(OC(=O)c2ccccc2)n(-c2nc(C)c(C)nc2C)n1` [Test drug 4, 3-methyl-1-(3,5,6-trimethylpyrazin-2-yl)-1H-pyrazol-5-yl-benzoate], in assay [1], the “Latent period of falling (rotarod test)” value turned out to be 43.8 ± 14.9 s. In assay [2] (Gavage, 3 × 10^−5 mol/kg), this compound returned a Behavioral score of 1.7 ± 0.7. Besides, in assay [3], the “Cerebral blood flow 24 h after last administration” value is listed as 321.2 ± 17.0 BPU, the “Cerebral blood flow improvement percentage” value turned out to be 27.0 ± 7.3 %, the “Recovery percentage” value is reported as 87.0 ± 5.8**^& % and the “Cerebral blood flow before administration” value turned out to be 220.8 ± 16.4 BPU. Also, in assay [3], the “Decrease percentage” value worked out at 40.0 ± 7.1% and the “Cerebral blood flow before ischemia” value is recorded as 370.2 ± 17.2 BPU. Further, the “Percentage of cerebral infarction area” value in assay [4] (3 × 10^−5 mol/kg) stood at 4.5 ± 2.5 %. In addition, the “Overall therapeutic effect in tMCAO rats (in words; vs model control group and between test drug groups)” value in assay [5] is “better than the groups 2 and 5”.

Regarding `Cc1cc(OC(=O)C(C)(C)C)n(-c2nc(C)c(C)nc2C)n1` [Test drug 5, 3-methyl-1-(3,5,6-trimethylpyrazin-2-yl)-1H-pyrazol-5-pivalate], the “Latent period of falling (rotarod test)” value in assay [1] was 31.5 ± 14.5^ s. The Behavioral score in assay [2] (Gavage, 6 × 10^−5 mol/kg) was 2.7 ± 0.9. Besides, in assay [3], the “Cerebral blood flow 24 h after last administration” value was found to be 275.0 ± 20.5 BPU, the “Cerebral blood flow improvement percentage” value is 21.2 ± 4.7*^ %, the “Recovery percentage” value is 81.6 ± 5.9**^ % and the “Cerebral blood flow before administration” value turned out to be 203.3 ± 8.1 BPU. In assay [3], the “Decrease percentage” value amounted to 39.5 ± 4.4% and the “Cerebral blood flow before ischemia” value is listed as 337.9 ± 26.0 BPU. Besides, in assay [4] (6 × 10^−5 mol/kg), the “Percentage of cerebral infarction area” value is 2.9 ± 1.0 %.
